Experimental data from patent publication US11083714B2, “Selective anti-cancer agent effective for prevention and treatment” (Molecular International Research, Inc., priority 2018, dated 2021).
Read-outs that look alike come from different tables or passages of the source.

Tests used:
[1] = system: RPWE-1; test: Cell Proliferation (anti-cancer), RPWE-1; format: cell-based, human
Experimental: (§1) The primary goal of synthesizing de-ethylflavopereirine (compound 13-9-1) was to generate a different compound that still retains the anti-cancer cell activity of flavopereirine (compound 13-7-2). Comparison of the effects of the two compounds on proliferation of a variety of cancer cells confirmed that this goal was achieved. For example, the effect of de-ethylflavopereirine on two human breast cancer cell lines and two human prostate cancer cell lines were analyzed.

[2] = system: two human breast cancer cell lines; test: Proliferation of breast cancer cell lines; format: cell-based
Experimental: as §1

[3] = format: in vivo; conditions: 100, 150 and 200 mg/kg, groups of two, 48 hr observation
Experimental: A study with synthetic compounds 13-7-2 (flavopereirine) and 13-9-1 (de-ethylflavopereirine) was conducted to compare the toxicity of the two compounds in animals. The compounds were dissolved in phosphate buffered saline for administration. Both compounds were injected IP in male immunodeficient (homozygous recessive scid/scid, beige/beige) mice.
Compound 13-7-2 was injected at a dose of 100 mg/kg, 150 mg/kg, and 200 mg/kg in mice divided in groups of two. […] One mouse injected with 150 mg/kg died at 6 hr whereas one mouse injected with 200 mg/kg dose died at 24 hr. One mouse injected with 100 mg/kg dose died at 48 hr.
Compound 13-9-1 was injected at a dose of 100 mg/kg, 150 mg/kg, and 200 mg/kg in mice divided in groups of two.

[4] = Toxicity in mice, intravenous administration; format: in vivo; conditions: 20 mg/kg and 40 mg/kg
Experimental: At 20 mg/kg and 40 mg/kg doses, intravenous administration of compound 13-9-1 in mice was well-tolerated. The 20 mg/kg dose provides sufficient serum concentration for the compound to exert its anti-tumor effect.
Oral administration was chosen for the mouse experiments because administration is simplified by avoiding the need for tail vein injections.

[5] = system: MIA PaCa, PANC-1, BxPc, AsPc; test: MTT cell viability, pancreatic cancer cell lines; format: cell-based, human; conditions: 48 hr
Experimental: FIG. 8. Dose-response curves for cell viability of human pancreatic cancer cell lines MIA PaCa (squares), PANC-1 (lozenges), BxPc (crosses), and AsPc (triangles) exposed to de-ethylflavopereirine. Cells were cultured in the presence of increasing concentrations of the compound for 48 hr and cell viability was determined by MTT assay. MRC-5 (asterisks) was used as a control.
De-ethylflavopereirine was tested for its activity against ovarian, pancreatic, brain, and colon cancer cell lines. […] Cytotoxicity is assayed by reducing a yellow tetrazolium dye, 3-(4,5-dimethylthiazol-2-yl)-2,5-diphenyltetrazolium bromide (MTT), to insoluble purple formazan. The MTT assay is a colorimetric assay for determining the number of viable cells.

[6] = Tissue distribution after oral administration; format: in vivo, mice; conditions: oral 200 mg/kg; for Tmax: mouse
Source text: The highest concentrations (highest Cmax) were found in kidney, colon and spleen. Highest AUC was found with the lung, followed by spleen, colon, and kidney.
Lung had the largest AUC and the fastest Tmax. […] Compound 13-9-1 was accumulated in the lung relatively fast, and was eliminated relatively slowly. The concentration was maintained in lung for a long time relative to other organs. At 24 hr, the concentration in the lung was still 6.67 nmoles/mg protein, 38% of the peak of 17.50 at 2 hr.
Colon had the second highest Cmax among all the organs tested, and an AUC only less than lung and spleen. […] Tmax was 3 hr. At 24 hr, the concentration was 9.31 nmoles/mg protein, 29% of the peak of 31.63.

[7] = system: PANC-1 cells; test: Spheroid formation (cancer stem cells); format: cell-based
Experimental: FIG. 22. PANC-1 cell suspensions were treated at concentrations of 0 μM (negative control), 2.5 μM, 5.0 μM, and 10.0 μM de-ethylflavopereirine then examined for the presence of spheroids.
FIG. 23. Primary spheroids from first round were collected and seeded for secondary spheroid formation. Following treatment with concentrations of 0 μM (negative control), 2.5 μM, 5.0 μM, and 10.0 μM de-ethylflavopereirine, suspensions were examined.
In vitro, cancer stem cells form spheroids: clusters of cancer cells surrounding a cancer stem cell. Inhibition of spheroid formation is a test for anti-cancer stem cell activity of a compound.

[8] = system: β-catenin; test: β-catenin localization in PANC-1 cells (Wnt signaling); format: cell-based
Source text: FIG. 28. Effect of de-ethylflavopereirine on β-catenin localization in the nucleus of PANC-1 cells. […] Cytoplasmic β-catenin levels were not affected under these conditions. Vinculin provided a marker for a cytoplasmic protein that is present in very low amounts in the nucleus.
Wnt pathway activation involves translocation of β-catenin from the cytoplasm into the nucleus and subsequent changes in transcription of targeted genes. Suppression of Wnt activation occurs when the translocation of β-catenin into the nucleus is suppressed. […] So de-ethylflavopereirine inhibits the growth of pancreatic cancer stem cells in part because it specifically suppresses Wnt signaling.

Question: For `c1ccc2c(c1)[nH]c1c2cc[n+]2ccccc12` [Compound 13-9-1, 12H-indolo[2,3-a]quinolizin-5-ium], which “Growth Inhibition” value [1] is on record?
Answer: Yes

Question: What about the IC50 ([1]; Homo sapiens, after any period of treatment, read-out: Minimum Dose (IC50) needed to decrease growth 50% or greater versus control) of the same molecule?
Answer: 5 µM

Question: What about the “IC50 compared with flavopereirine” value [2] of the same molecule?
Answer: same IC50s

Question: What about the “deaths after IP injection” value [3] of the same molecule?
Answer: None of the mice injected with compound 13-9-1 died

Question: And the “deaths after IP injection” value ([3]; listed as de-ethylflavopereirine)?
Answer: no mice injected IP with de-ethylflavopereirine died

Question: And the “tolerability of intravenous administration” value [4]?
Answer: well-tolerated

Question: What about the cell viability [5] of the same molecule?
Answer: dose-dependent decrease in cancer cell viability

Question: And the Cmax ([6]; adrenal gland)?
Answer: 17.62 nmoles/mg of protein

Question: And the Cmax ([6]; brain)?
Answer: 1.20 nmoles/mg of protein

Question: And the Cmax ([6]; colon)?
Answer: 31.63 nmoles/mg of protein

Question: And the “concentration at 24 hr” value ([6]; colon)?
Answer: 9.31 nmoles/mg protein

Question: And the “concentration at 24 hr as share of the peak” value ([6]; colon)?
Answer: 29%

Question: And the Cmax ([6]; heart)?
Answer: 7.82 nmoles/mg of protein

Question: And the Cmax ([6]; kidney)?
Answer: 55.69 nmoles/mg of protein

Question: What about the Cmax ([6]; liver) of the same molecule?
Answer: 22.21 nmoles/mg of protein

Question: What about the Cmax ([6]; lung) of the same molecule?
Answer: 17.50 nmoles/mg of protein

Question: What about the “concentration at 24 hr” value ([6]; lung) of the same molecule?
Answer: 6.67 nmoles/mg protein

Question: And the “concentration at 24 hr as share of the peak” value ([6]; lung)?
Answer: 38%

Question: And the Tmax ([6]; adrenal gland)?
Answer: 4 h

Question: And the Tmax ([6]; brain)?
Answer: 4 h

Question: What about the Tmax ([6]; colon) of the same molecule?
Answer: 3 h

Question: What about the Tmax ([6]; heart) of the same molecule?
Answer: 4 h

Question: What about the Tmax ([6]; kidney) of the same molecule?
Answer: 4 h

Question: What about the Tmax ([6]; liver) of the same molecule?
Answer: 4 h

Question: And the Tmax ([6]; lung)?
Answer: 2 h

Question: And the Tmax ([6]; muscle)?
Answer: 4 h

Question: And the Tmax ([6]; ovary)?
Answer: 4 h

Question: And the Tmax ([6]; pancreas)?
Answer: 4 h

Question: And the Tmax ([6]; spleen)?
Answer: 4 h

Question: And the Cmax ([6]; muscle)?
Answer: 5.67 nmoles/mg of protein

Question: What about the tissue distribution [6] of the same molecule?
Answer: found in all tested organs and tissues, including the brain

Question: And the Cmax ([6]; ovary)?
Answer: 11.17 nmoles/mg of protein

Question: And the Cmax ([6]; pancreas)?
Answer: 16.95 nmoles/mg of protein

Question: What about the Cmax ([6]; spleen) of the same molecule?
Answer: 30.01 nmoles/mg of protein

Question: And the secondary spheroid formation ([7]; 2.5 μM)?
Answer: significant inhibition

Question: And the primary spheroid formation ([7]; 5 μM and 10 μM)?
Answer: significantly inhibited primary spheroid formation

Question: And the secondary spheroid formation ([7]; 5 μM and 10 μM)?
Answer: completely inhibited

Question: What about the “cytoplasmic β-catenin levels” value ([8]; 24 and 48 hr) of the same molecule?
Answer: not affected

Question: What about the “β-catenin levels in the nucleus” value ([8]; 24 hr post-treatment) of the same molecule?
Answer: no effect

Question: And the “β-catenin levels in the nucleus” value ([8]; 48 hr post-treatment)?
Answer: significantly reduced
